From ChEMBL document CHEMBL4602609, “Virtual screening to identify potent sepiapterin reductase inhibitors” (Bioorg Med Chem Lett, 2020)

What follows are molecules tested against Sepiapterin reductase (Homo sapiens, UniProt P35270) (assay: Inhibition of sepiapterin reductase (unknown origin)). Conditions: not given.
Sepiapterin reductase, sequence (P35270 whole entry): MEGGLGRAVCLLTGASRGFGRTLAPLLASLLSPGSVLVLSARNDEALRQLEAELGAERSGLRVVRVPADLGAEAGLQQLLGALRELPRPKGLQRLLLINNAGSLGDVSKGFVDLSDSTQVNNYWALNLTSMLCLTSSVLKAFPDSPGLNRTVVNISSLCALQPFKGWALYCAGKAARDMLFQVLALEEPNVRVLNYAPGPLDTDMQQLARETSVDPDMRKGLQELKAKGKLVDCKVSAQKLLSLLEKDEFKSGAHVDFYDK

Row | pIC50 | Compound
1 | 5.39 | CCOC(=O)C1=C(O)C2(CCC(=CC(=O)OC)CC2)c2ccc(Cl)cc2C1=O (stereo not given)

Same assay, conditions: read-out: IC50

Row | IC50 [nM] | Compound
2 | 80 | Cc1nn(C)c2ncc(C(=O)c3ccccc3O)cc12
3 | 50 | Cc1n[nH]c2ncc(C(=O)c3cc(F)ccc3O)cc12
4 | 2500 | COc1ccc(O)c(C(=O)c2cnc3c(c2)c(C)nn3C)c1
5 | 50 | Cc1nn(CCO)c2ncc(C(=O)c3cc(F)ccc3O)cc12
6 | 30 | Cc1nn(C2CCOC2)c2ncc(C(=O)c3ccccc3O)cc12 (stereo not given)
7 | > 19000 | COc1ccc(O)c(C(=O)c2cnc3c(c2)c(C)nn3-c2cccc(Cl)c2)c1
8 | 1720 | Cc1ccc(O)c(C(=O)c2cnc3c(c2)c(C)nn3-c2ccccn2)c1
9 | > 19000 | Cc1nn(-c2ccccn2)c2ncc(C(=O)N(C)C)cc12
10 | > 19000 | Cc1ccc(-n2nc(C)c3cc(C(=O)c4cc(C)ccc4O)cnc32)cc1
11 | 17000 | COc1ccc(O)c(C(=O)c2cnc3c(c2)c(C)nn3-c2ccccc2)c1
12 | > 19000 | Cc1ccc(O)c(C(=O)c2cnc3c(c2)c(C)nn3-c2ccc(F)cc2)c1
13 | > 19000 | Cc1nn(-c2ccccn2)c2ncc(C(=O)O)cc12
14 | 820 | Cc1nn(-c2ccc(F)cc2)c2ncc(C(=O)c3ccccc3O)cc12
15 | 140 | Cc1nn(-c2ncccn2)c2ncc(C(=O)c3ccccc3O)cc12
16 | 180 | Cc1nn(-c2ccccc2)c2ncc(C(=O)c3cc(F)ccc3O)cc12
17 | 40 | Cc1nn(CCO)c2ncc(C(=O)c3cc(Cl)ccc3O)cc12
18 | 20 | Cc1nn(C2CCCS2(=O)=O)c2ncc(C(=O)c3cc(F)ccc3O)cc12 (stereo not given)
19 | 860 | Cc1nn(-c2ccccc2)c2ncc(C(=O)c3ccccc3O)cc12
20 | > 19000 | COc1ccc(O)c(C(=O)c2cnc3c(c2)c(C)nn3-c2cccc(C)c2)c1
21 | 20 | Cc1nn(C2CCOCC2)c2ncc(C(=O)c3ccccc3O)cc12
22 | 180 | Cc1nn(-c2ccccn2)c2ncc(C(=O)c3ccccc3O)cc12
23 | 80 | Cc1nn(-c2ccccn2)c2ncc(C(=O)c3cc(Cl)ccc3O)cc12
24 | 50 | Cc1ccnc(-n2nc(C)c3cc(C(=O)c4ccccc4O)cnc32)c1
25 | 140 | Cc1nn(-c2ccncn2)c2ncc(C(=O)c3ccccc3O)cc12
26 | 50 | Cc1nn(-c2ccccc2F)c2ncc(C(=O)c3ccccc3O)cc12
27 | 40 | Cc1nn(-c2ccccn2)c2ncc(C(=O)c3cc(F)ccc3O)cc12
28 | 1360 | Cc1cccc(-n2nc(C)c3cc(C(=O)c4ccccc4O)cnc32)c1
29 | 970 | Cc1ccc(O)c(C(=O)c2cnc3c(c2)c(C)nn3C)c1
30 | > 19000 | Cc1ccc(O)c(C(=O)c2cnc3c(c2)c(C)nn3-c2ccccc2)c1
31 | 40 | Cc1nn(C)c2ncc(C(=O)c3cc(F)ccc3O)cc12

Same assay, conditions: read-out: pIC50 (converted)

Row | IC50 [nM] | Compound
32 | 1780 | COc1cc(C(F)(F)F)ccc1-c1nc(Cl)cc2cc(S(=O)(=O)Nc3nccs3)ccc12
33 | 1780 | COc1cc(C(F)(F)F)ccc1-c1nccc2cc(S(=O)(=O)Nc3ccc(F)cn3)ccc12
34 | 6170 | CC1(C)C=Cc2c(c(CCO)c3occ(-c4ccc(O)c(O)c4)c(=O)c3c2O)O1
35 | 3020 | O=C(Nc1nc2ccc(CN3CCCCC3)cc2n1[C@H]1CC[C@@H](C(=O)O)CC1)c1ccc(F)cc1
36 | 8130 | Cc1ccc(C(=O)c2ccccc2O)c(O)n1
37 | 57.5 | CCn1ncc(C(=O)c2cc(Cl)c(N(C)S(=O)(=O)N(C)C)cc2OC)c1O
38 | 3240 | CC1(C)C(O)=C(C(N)=O)C(=O)c2cc(C(=O)NCCc3ccccc3)ccc21
39 | 9550 | O=C(Nc1cccc(C(F)(F)F)c1)N1CCC(S(=O)(=O)Nc2nccs2)CC1
40 | 9120 | O=C(CN(c1cccc(Cl)c1)S(=O)(=O)c1cccnc1)N[C@H]1CC[C@H](n2c(=O)[nH]c3ccccc32)CC1
41 | 4370 | Cn1nc(-c2cccnc2)c2c1NC(=O)C[C@@H]2c1ccc2cccc(O)c2n1
42 | 324 | Cc1cc(C(=O)C2C(=O)CC(C)CC2=O)c(C)c2c1S(=O)(=O)CCc1cn(C)nc1-2 (stereo not given)
43 | 7590 | FC(F)(F)Oc1cccc(-n2nnnc2N2CCN(c3ncnc4sc5c(c34)CCC5)CC2)c1
44 | 6760 | CCOC(=O)c1c(C)n(C)c2cc(Nc3ccccc3)c(O)cc12
45 | 66.1 | Cc1nn(-c2ccccn2)c2ncc(C(=O)c3ccccc3O)cc12
46 | 603 | O=S(=O)(Nc1ccccn1)c1ccc2c(c1)OCCO2
47 | 575 | O=S(=O)(Nc1nccs1)c1ccc2c(c1)OCCN2CCc1ccncc1
48 | 9550 | O=C(O)c1ccc2c(C(c3ccc(Cl)cc3Cl)c3c[nH]c4cc(C(=O)O)ccc34)c[nH]c2c1
49 | 7940 | CCOC(=O)CNCc1c(C(=O)CC)c2cc(OC)c(Br)cc2n1C
50 | 2950 | CCCc1cc(C(=O)N2CCC(C3Nc4ccccc4S(=O)(=O)N3)CC2)[nH]n1 (stereo not given)
